Data as given in patent EP4752152A1, “STEROID COMPOUND, AND PREPARATION METHOD THEREFOR AND USE THEREOF” (Cholesgen (Shanghai) Co.Ltd., priority 2023, dated 2025).
pIC50: −log10 of the molar value.

Tests used:
[1] = test system: SREBP pathway; test: SREBP luciferase reporter gene system (SRE-luciferase assay); type: cell-based, human; details: Huh-7/SRE-luc cells, sterol-deficient medium, 0.01-10 µM
Method in brief: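 Readout was SRE-driven luciferase normalised to GFP fluorescence in lysates of stably transfected Huh-7/SRE-luc hepatoma cells. Compounds (0.01, 0.03, 0.1, 0.3, 1.0, 3.0, 10 µM; DMSO control) were applied for 16 h in sterol-depleted medium with 2 µM lovastatin and 10 µM mevalonate; IC50 from variable-slope fit.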

[2] = test system: Fatty Acid Synthase (FASN) gene; test: Inhibition of FASN gene expression (qPCR) in Huh-7 cells; type: cell-based, human; details: Homo sapiens, Huh-7, 16 h, Huh-7 cells, starvation medium, 16 hours, qPCR; class symbols; read-out: FASN IC50
Description: Huh-7 cells (purchased from ATCC) were cultured in DMEM medium (containing 10% fetal bovine serum LONSERA S711-001S) at 37°C in a 5% CO2 incubator. After 24 hours, the original medium was aspirated and replaced with DMEM starvation medium (containing 5% lipoprotein deficient serum (LPDS), 2 µM lovastatin, and 10 µM mevalonate). The control group was treated with dimethyl sulfoxide (DMSO), while the compound treatment groups were treated with different concentrations of compounds. The highest concentration of the compound was 3000 nM, with 3-fold dilutions, totaling 5 concentrations. The cells were cultured for 16 hours. Cell lysis was performed, followed by reverse transcription from cells to cDNA, and qPCR was performed to detect the expression of the SREBP target gene Fatty Acid Synthase (FASN) gene (FASN gene forward primer sequence: 5'-[…]-3', reverse primer sequence: 5'-[…]-3'). The IC50 was calculated. The test data for each test compound were analyzed using Prism software (with the DMSO-treated group as the reference to calculate the compound inhibition rate, fitted using the Prism log(inhibitor) vs. responseVariable slope (four-parameter) model, calculation formula: Y = Bottom + (Top - Bottom)/(1 + 10^((LogIC50 - X) × HillSlope))), to obtain the IC50 parameters of the compounds. Table 4: Inhibition results of FASN gene expression by compounds from some examples

Compound	IC50 ([1]; Homo sapiens, Huh-7, 16 h) [µM]	pIC50 [2]	IC50 ([1]; 16 hours) [µM]
C[C@H](CCCC(O)c1cccnc1)[C@H]1CC[C@H]2[C@H]3[C@H](CC[C@]12C)[C@@]1(C)CC[C@H](O)[C@H](O)[C@@H]1CC3(F)F (stereo partly drawn) [Compound 54, (1R,3aS,3bS,5aR,6R,7S,9aR,9bS,11aR)-4,4-difluoro-1-[(2R)-6-hydroxy-6-(pyridin-3-yl)hexan-2-yl]-9a,11a-dimethylhexadecahydro-1H-cyclopenta[1,2-a]phenanthrene-6,7-diol]	0.35	6.30 to 6.70	
COc1cc(F)ccc1C(O)CCC[C@@H](C)[C@H]1CC[C@H]2[C@H]3[C@H](CC[C@]12C)[C@@]1(C)CC[C@H](O)C(=O)[C@@H]1CC3(F)F (stereo partly drawn) [Compound 184, (1R,3aS,3bS,5aR,7S,9aR,9bS,11aR)-4,4-difluoro-1-[(2R)-6-(4-fluoro-2-methoxyphenyl)-6-hydroxyhexan-2-yl]-7-hydroxy-9a,11a-dimethylhexadecahydro-1H-cyclopenta[1,2-a]phenanthren-6-one]	0.031	> 6.70	
C[C@H](CCC[C@@H](O)c1ccccn1)[C@H]1CC[C@H]2[C@H]3[C@H](CC[C@]12C)[C@@]1(C)CC[C@H](O)[C@H](O)[C@@H]1CC3(F)F [Compound 92, (1R,3aS,3bS,5aR,6R,7S,9aR,9bS,11aR)-4,4-difluoro-1-[(2R,6R)-6-hydroxy-6-(pyridin-2-yl)hexan-2-yl]-9a,11a-dimethylhexadecahydro-1H-cyclopenta[1,2-a]phenanthrene-6,7-diol]	0.371	> 6.70	
COc1cc(F)c([C@H](O)CCC[C@@H](C)[C@H]2CC[C@H]3[C@H]4[C@H](CC[C@]23C)[C@@]2(C)CC[C@H](O)[C@H](O)[C@@H]2CC4(F)F)c(F)c1Br (single isomer, unassigned) [Compound 199]	0.152	6.30 to 6.70	
COc1cc(Cl)ccc1[C@H](O)CCC[C@@H](C)[C@H]1CC[C@H]2[C@H]3[C@H](CC[C@]12C)[C@@]1(C)CC[C@H](O)[C@H](O)[C@@H]1CC3(F)F [Compound 113, (1R,3aS,3bS,5aR,6R,7S,9aR,9bS,11aR)-1-[(2R,6R)-6-(4-chloro-2-methoxyphenyl)-6-hydroxyhexan-2-yl]-4,4-difluoro-9a,11a-dimethylhexadecahydro-1H-cyclopenta[1,2-a]phenanthrene-6,7-diol]	0.228	6.30 to 6.70	
C[C@H](CCC[C@H](O)c1c(F)ccnc1F)[C@H]1CC[C@H]2[C@H]3[C@H](CC[C@]12C)[C@@]1(C)CC[C@H](O)[C@H](O)[C@@H]1CC3(F)F (single isomer, unassigned) [Compound 233]	0.106	6.30 to 6.70	
C[C@H](CCCC(O)c1cccc2ncn(C)c12)[C@H]1CC[C@H]2[C@H]3[C@H](CC[C@]12C)[C@@]1(C)CC[C@H](O)[C@H](O)[C@@H]1CC3(F)F (stereo partly drawn) [Compound 261, (1R,3aS,3bS,5aR,6R,7 S,9aR,9bS,11aR)-4,4-Difluoro-1-[(2R)-6-hydroxy-6-(3-methylbenzo[d]imidazol-4-yl)hexan-2-yl]-9a,11a-dimethylhexadecahyd ro-1H-cyclopenta[1,2-a]phenanthrene-6,7-diol]	0.001	> 6.70	
C[C@H](CCCC(O)c1ccc(F)nc1F)[C@H]1CC[C@H]2[C@H]3[C@H](CC[C@]12C)[C@@]1(C)CC[C@H](O)[C@H](O)[C@@H]1CC3(F)F (single isomer, unassigned) [Compound 227, (1R,3aS,3bS,5aR,6R,7S,9aR,9bS,11aR)-1-[(2R,6R)-6-(2,6-difluoropyridin-3-yl)-6-hydroxyhexan-2-yl]-4,4-difluoro-9a,11a-dimethylhexadecahydro-1H-cyclopenta[1,2-a]phenanthrene-6,7-diol or (1R,3aS,3bS,5aR,6R,7S,9aR,9bS,11aR)-1-[(2R,6S)-6-(2,6-difluoropyridin-3-yl)-6-hydroxyhexan-2-yl]-4,4-difluoro-9a,11a-dimethylhexadecahydro-1H-cyclopenta[1,2-a]phenanthrene-6,7-diol]		6.30 to 6.70	0.014
COc1ncccc1C(O)CCC[C@@H](C)[C@H]1CC[C@H]2C3=C(F)C[C@H]4[C@@H](O)[C@@H](O)CC[C@]4(C)[C@H]3CC[C@]12C (stereo partly shown) [Compound 83]	0.092	6.30 to 6.70	
COc1cc(F)nc(F)c1[C@H](O)CCC[C@@H](C)[C@H]1CC[C@H]2[C@H]3[C@H](CC[C@]12C)[C@@]1(C)CC[C@H](O)[C@H](O)[C@@H]1CC3(F)F (single isomer, unassigned) [Compound 262]	0.017	> 6.70	
C[C@H](CCCC(O)c1cccc2cnn(C)c12)[C@H]1CC[C@H]2[C@H]3[C@H](CC[C@]12C)[C@@]1(C)CC[C@H](O)[C@H](O)[C@@H]1CC3(F)F (single isomer, unassigned) [Compound 244, (1R,3aS,3bS,5aR,6R,7S,9aR,9bS,11aR)-4,4-difluoro-1-[(2R,6R)-6-hydroxy-6-(1-methylindazol-7-yl)hexan-2-yl]-9a,11a-dimethylhexadecahydro-1H-cyclopenta[1,2-a]phenanthrene-6,7-diol or (1R,3aS,3bS,5aR,6R,7S,9aR,9bS,11aR)-4,4-difluoro-1-[(2R,6S)-6-hydroxy-6-(1-methylindazol-7-yl)hexan-2-yl]-9a,11a-dimethylhexadecahydro-1H-cyclopenta[1,2-a]phenanthrene-6,7-diol]		> 6.70	0.06
C[C@H](CCCC(O)c1ccc(F)cc1)[C@H]1CC[C@H]2[C@H]3[C@H](CC[C@]12C)[C@@]1(C)CC[C@H](O)[C@H](O)[C@@H]1CC3(F)F (stereo partly drawn) [Compound 100, (1R,3aS,3bS,5aR,6R,7S,9aR,9bS,11aR)-4,4-difluoro-1-[(2R)-6-(4-fluorophenyl)-6-hydroxyhexan-2-yl]-9a,11a-dimethylhexadecahydro-1H-cyclopenta[1,2-a]phenanthrene-6,7-diol]	0.179	6.30 to 6.70	
COc1cccc(F)c1C(O)CCC[C@@H](C)[C@H]1CC[C@H]2[C@H]3[C@H](CC[C@]12C)[C@@]1(C)CC[C@H](O)C[C@@H]1CC3(F)F (single isomer, unassigned) [Compound 314]	0.14	6.05 to 6.30	
COc1cccc(F)c1C(O)CCC[C@@H](C)[C@H]1CC[C@H]2[C@H]3[C@H](CC[C@]12C)[C@@]1(C)CC[C@H](O)C[C@@H]1CC3(F)F (stereo partly drawn) [Compound 302, (1R,3aS,3bR,5aR,7S,9aS,9bS,11aR)-4,4-difluoro-1-[(2R)-6-(2-fluoro-6-methoxyphenyl)-6-hydroxyhexan-2-yl]-9a,11a-dimethylhexadecahydro-1H-cyclopenta[1,2-a]phenanthren-7-ol]	0.085	> 6.70	
C[C@H](CCCC(O)c1cccc2ncn(C)c12)[C@H]1CC[C@H]2[C@H]3[C@H](CC[C@]12C)[C@@]1(C)CC[C@H](O)[C@H](O)[C@@H]1CC3(F)F (single isomer, unassigned) [Compound 299, (1R,3aS,3bS,5aR,6R,7S,9aR,9bS,11aR)-4,4-difluoro-1-[(2R,6R)-6-hydroxy-6-(3-methylbenzo[d]imidazol-4-yl)hexan-2-yl]-9a,11a-dimethylhexadecahydro-1H-cyclopenta[1,2-a]phenanthrene-6,7-diol or (1R,3aS,3bS,5aR,6R,7S,9aR,9bS,11aR)-4,4-difluoro-1-[(2R,6S)-6-hydroxy-6-(3-methylbenzo[d]imidazol-4-yl)hexan-2-yl]-9a,11a-dimethylhexadecahydro-1H-cyclopenta[1,2-a]phenanthrene-6,7-diol]	0.033	> 6.70	
C[C@H](CCCC(O)c1ccc(F)cc1)[C@H]1CC[C@H]2C3=C(F)C[C@H]4[C@@H](O)[C@@H](O)CC[C@]4(C)[C@H]3CC[C@]12C (stereo partly drawn) [Compound 101, (1R,3aR,5aR,6R,7S,9aR,9bR,11aR)-4-fluoro-1-[(2R)-6-(4-fluorophenyl)-6-hydroxyhexan-2-yl]-9a,11a-dimethyl-2,3,3a,5,5a,6,7,8,9,9a,9b,10,11,11a-tetradecahydro-1H-cyclopenta[1,2-a]phenanthrene-6,7-diol]	0.298	6.30 to 6.70	
COc1ncccc1C(O)CCC[C@@H](C)[C@H]1CC[C@H]2[C@H]3[C@H](CC[C@]12C)[C@@]1(C)CC[C@H](O)[C@H](O)[C@@H]1CC3(F)F (single isomer, unassigned) [Compound 192, (1R,3aS,3bS,5aR,6R,7S,9aR,9bS,11aR)-4,4-difluoro-1-[(2R,6S)-6-hydroxy-6-(^2-methoxypyridin-3-yl)hexan-2-yl]-9a,11a-dimethylhexadecahydro-1H-cyclopenta[1,2-a]phenanthrene-6,7-diol or (1R,3aS,3bS,5aR,6R,7S,9aR,9bS,11aR)-4,4-difluoro-1-[(2R,6R)-6-hydroxy-6-(2-methoxypyridin-3-yl)hexan-2-yl]-9a,11a-dimethylhexadecahydro-1H-cyclopenta[1,2-a]phenanthrene-6,7-diol]	0.053	6.30 to 6.70	
